According to patent US20030026831A1, “Anionic liposomes for delivery of bioactive agents” (priority 2001, published 2003):
{Cy3} = Cy3 fluorescent dye label

What was measured:
[1] = system: Human cervical carcinoma (HeLa); experiment: Uptake of Cy3-ONs by HeLa cells; format: cell-based; conditions: 1 μM Cy3-ONs, 1 h at 37° C.
Method: (§1) The ability of this delivery system to deliver DNA to cell types other than neurons was investigated by studying uptake of Cy3-oligonucleotides delivered by anionic DOPC/DOPG liposomes in cells derived from a variety of tissues. CHO, HeLa, HuH-7, MDCK and MEF-1 cells all avidly internalized AL-Cy3ONs within 1 h of incubation (FIG. 2). Uptake of AL-Cy3ONs occurred in the presence of serum in the culture medium. Similar to the uniform uptake seen in primary neurons, Cy3 fluorescence was visible in almost all cells exposed to AL-Cy3ONs in all cell types studied (Table 1). On the other hand, uptake of Cy3ON either without a delivery vector or complexed to cationic DC-Chol/DOPE liposomes was cell type-dependent, ranging from ˜5% in MDCK cells to ˜50% in HeLa cells (Table 1).

[2] = system: Chinese hamster ovary cell line (CHO-K1); experiment: Uptake of Cy3-ONs by CHO-K1 cells; format: cell-based; conditions: 1 μM Cy3-ONs, 1 h at 37° C.
Method: as §1

Human hepatoma (Huh-7) = experiment: Uptake of Cy3-ONs by Huh-7 cells; format: cell-based; conditions: 1 μM Cy3-ONs, 1 h at 37° C.
Method: as §1

[3] = system: Canine kidney cell line (MDCK); experiment: Uptake of Cy3-ONs by MDCK cells; format: cell-based; conditions: 1 μM Cy3-ONs, 1 h at 37° C.
Method: as §1

hippocampal neurons [4] = experiment: Colocalization with transferrin (early and recycling endosomes); format: cell-based, rat; conditions: delivered in anionic liposomes
Method: (§2) Colocalization of Lipids and Oligonucleotides with Transferrin and Dextran. Intracellular fates of endocytosed liposomes and ONs were determined by comparing their intracellular distributions with that of Oregon Green 488-Transferrin (OG-Tf) and Alexa488-dextran (Molecular Probes, Eugene, Oreg.) used as markers for the recycling and lysosomal compartments, respectively. Neurons were incubated with AL-Cy3ONs and either 100 μg/ml OG-Tf, for 30 minutes, 1 hour or 3 hours; or with 1 mg/ml Alexa488-dextran for 3 hours. For the lipid transport experiments, neurons were incubated with liposomes labeled with N—Rh-DOPE and either OG-TF, for 30 minutes, 1 hour, or 3 hours; or with 1 mg/ml Alexa-dextran for 3 hours. In another set of experiments, neurons were incubated with AL-Cy3ONs for 30 minutes, rinsed and chased with 1 mg/ml Alexa 488 dextran for 3 hours. Cells were rinsed and fixed for imaging as described above.
(§3) Confocal Microscopy and Image Analysis. Imaging was performed on a Leica TCS 4D confocal microscope (Deerfield, Ill.) equipped with a Mercury/Xenon lamp and argon/krypton laser. Cells were excited using the 488 nm laser line to detect Oregon Green 488-Transferrin and Alexa488-Dextran, and the emitted fluorescence was collected using a 515 long-pass filter. The 568 nm laser line was used to excite Cy3 and N—Rh-DOPE (LP590 emission). Cells were imaged at a plane midway between the substrate-attached plasma membrane and the top of the cell, such that neuronal nuclei were clearly identifiable. In some cases, the entire volume of the cell was scanned in 0.5 μm increments. Optimal images were obtained by averaging 16 images in the line-scan mode at the same fixed gains for all experiments. All fluorescent images presented in figures were equally contrast enhanced using ADOBE PHOTOSHOP (Adobe, Mountain View, Calif.).
(§4) All image analysis was performed using the METAMORPH Imaging System software (Universal Imaging, Downington, Pa.). The cell outlines for each set of double-labeled fields were traced out manually in the corresponding differential interference contrast image and then used to mask the fluorescence images. In each cell, the total fluorescence intensity was measured and the percent of Cy3 label or rhodamine label that colocalized with transferrin or dextran was calculated.

[5] = system: Primary rat hippocampal neurons; experiment: Uptake of Cy3-ONs by hippocampal neurons; format: cell-based
Method: Hippocampal Cell Culture. Primary cultures of hippocampal neurons were prepared from neonatal rat pups (P1 or P2) as previously described (Dubinsky, 1993). Neurons were plated onto 22-mm square glass coverslips coated with collagen and polylysine, at a density of 150,000 cells per coverslip. Neurons were cultured for 24-30 hours in minimum essential medium (MEM) with 10% NUSERUM (Collaborative Research) to increase attachment to the glass substrate, after which the growing medium was replaced with Neurobasal medium with B27 supplements (Life Technologies, Rockville, Md.). Fluorodeoxyuridine (15 μg/ml) was added to restrict the growth of non-neuronal cells. Cultures were maintained at 37° C. in a humidified atmosphere containing 5% CO2 for 6-9 days before use.
Uptake of Cy3-ONs by hippocampal neurons. […] Uninternalized ONs, liposomes or complexes were removed by several washes with L15 (Leibovitz's) medium. Cells were then fixed in 4% paraformaldehyde for 15 minutes at room temperature. For low temperature studies, neurons were incubated at 4° C. with AL-Cy3ONs for 10 minutes and then fixed. The cells were imaged immediately after fixation to avoid a potential redistribution of ONs (Grzanna et al., 1998).
as §3, with “All fluorescent images presented in figures were equally contrast enhanced using ADOBE PHOTOSHOP (Adobe, Mountain View, Calif.).” left out

hippocampal neurons [6] = experiment: Colocalization with dextran (late endosomes and lysosomes); format: cell-based, rat; conditions: 3 h, delivered in anionic liposomes
Method: as §2
as §3, with “Optimal images were obtained by averaging 16 images in the line-scan mode at the same fixed gains for all experiments. All fluorescent images presented in figures were equally contrast enhanced using ADOBE PHOTOSHOP (Adobe, Mountain View, Calif.).” left out
as §4

[7] = system: Mouse embryonic fibroblasts (MEF-1); experiment: Uptake of Cy3-ONs by LRP-expressing MEF-1 cells; format: cell-based; conditions: 1 μM Cy3-ONs, 1 h at 37° C.
Method: as §1
The endocytosis of AL-Cy3ONs in immortalized mouse embryonic fibroblast cell lines that expressed LRP (MEF-1) was compared to endocytosis of AL-Cy3ONs in immortalized mouse embryonic fibroblast cell lines that lacked the receptor (PEA-13).

Q: Which results are given for “Cy3-ONs without delivery system: 18-mer 5′-CTGTGAATCCTCCATGAC-3′ (SEQ ID NO:2), targets rat p53 mRNA, labeled at the 5′-end with Cy3 (DNA, 5' {Cy3}, backbone not given here; listed as Rattus norvegicus)”?
A: Percent of cells with intracellular Cy3 fluorescence [1]: 51.5%; Percent of cells with intracellular Cy3 fluorescence ([1]; listed as Cy3ON without a delivery vector): ~50%; Percent of cells with intracellular Cy3 fluorescence [2]: 17%; Percent of cells with intracellular Cy3 fluorescence (Human hepatoma (Huh-7)): 18.3%; Percent of cells with intracellular Cy3 fluorescence [3]: ~5%; Percent colocalization with Transferrin (hippocampal neurons [4]; 30 min, listed as Cy3ON): 14.86 ± 1%; Percent colocalization with Transferrin (hippocampal neurons [4]; 30 min, listed as Cy3ONs): 15%; Percent colocalization with Transferrin (hippocampal neurons [4]; 1 h): 22.67 ± 1.7%; Percent colocalization with Transferrin (hippocampal neurons [4]; 3 h, listed as Cy3ON): 24.62 ± 2%; Percent colocalization with Transferrin (hippocampal neurons [4]; 3 h, listed as Cy3ONs): ≤ 25%; Uptake of Cy3-ONs by neurons ([5]; 1 μM Cy3-ONs, 1 h, serum-containing medium): taken up by a low percentage of neurons; Neuronal Cy3 fluorescence ([5]; 2 μM Cy3ONs, 30 minutes at 37° C.): low level of diffuse cellular fluorescence in only a small percent of cells; Percent of cells with intracellular Cy3 fluorescence ([5]; Primary rat hippocampal neurons, 1 μM Cy3-ONs, 1 h at 37° C.): 6%; Percent colocalization with Dextran (hippocampal neurons [6]; listed as Cy3ON): 20.13 ± 1.8%; Percent colocalization with Dextran (hippocampal neurons [6]; listed as Cy3ONs): 20%; Percent of cells with intracellular Cy3 fluorescence [7]: 20%
